Data published in patent publication US12686657B2, “Anti-inflammatory carboxamide derivatives” (BIOMEDCODE HELLAS SA, priority 2021, dated 2026).
Read-outs that look alike come from different tables or passages of the source.

Legend:
Assay type in all cases: cell-based, mice
hTNF-activated wt SFs = assay: CCL5 and CCL20 ELISA on hTNF-activated wild type synovial fibroblasts; details: for CCL5 WT, percentage of level in untreated cells / CCL20 WT, percentage of level in untreated cells / activity at 10 µM / activity at 25 µM / activity at 50 µM: 48 h; for activity at 10 µM / IC50 / activity at 25 µM / activity at 50 µM: Mus musculus, Fibroblast; for IC50: 10 ng/ml hTNF stimulation; for activity at 50 µM: compound 50 μM
Text: (§1) Primary SFs were derived from a) human TNF transgenic (hTNFTg) mice (Keffer et al., 1991) as well as from b) CBA/C57BL6 wild type mice.
By testing the compounds in a) and b) we accessed their effect on the activated SFs phenotype caused by both the endogenous hTNF upregulation and the exogenous hTNF administration. In this way it was confirm the ability of the compounds of the invention to act in the TNF pathway directly downstream of TNF.
(§2) SFs were isolated as previously described by Armaka et al., 2009, from the ankle joints of hTNFtg or CBA/C57BL6 wild type (wt) littermates. Briefly, ankle joints were digested with Collagenase IV (Sigma Aldrich, C5138) for 45 minutes at a 37° C. shaking waterbath and after 5 days in culture at 37° C. and 5% CO2, a depletion of CD45+ lineage cells was performed using a Biotin anti-mouse CD45 Antibody (Biolegend, 103104) and Dynabeads™ Biotin Binder (ThermoFisher 11047), according to the manufacturer's protocol. After 10 days in culture, SFs were seeded overnight (O/N) at a concentration of 2×10^4 cells/well in a 96 well plate in 1×DMEM, supplemented with 100 U/ml Penicillin Streptomycin (P/S) and 10% Fetal Bovine Serum (FBS). The next day the cells were synchronized by starvation that included their O/N plating in low serum medium (0.5% FBS). Following the O/N starvation, the hTNFg and the WT SFs were treated with different concentrations of the experimental compounds. The SFs were at the same time activated with 10 ng/ml hTNF (Peprotech, 300-01A). 48 h following the treatment the cell culture supernatants were collected and analyzed by ELISA (R&S Systems, Duoset, DY478 and DY760) according to the manufacturer's protocol, for the detection of CCL5/Rantes and CCL20/Mip3, two known inflammatory chemokines. The IC50 values were determined as the concentration of the compounds required to reduce the levels of secreted CCL5 and CCL20 by 50%.
In order to determine the efficiency of the compounds of the invention, the same protocol was repeated with some minor modifications. Mainly, the concentration of hTNF was 10-fold reduced, i.e., adjusted to 1 ng/ml, and the SFs were seeded overnight at a concentration of 10^4 cells/well.
(§3) Table 7 summarizes the reduction of CCL5 and CCL20 levels achieved with the test compounds of the invention. Data are presented as percentages of the chemokine levels detected in treated cells compared to 100% levels of the chemokines detected in the untreated cells.
(§4) Table 8 summarizes the values of IC50 and toxicity for the test compounds of the invention. Dose response curves regarding the WT SFs were produced with 10 ng/ml hTNF stimulation for all compounds, with the exception of the compounds E and F, where WT cells were induced using hTNF at 1 ng/ml: […]

hTNFtg SFs = assay: CCL5 and CCL20 ELISA on hTNFtg synovial fibroblasts; details: Mus musculus, Fibroblast; for activity at 10 µM: compound 10 μM; for activity at 10 µM / activity at 25 µM / activity at 50 µM: 48 h; for activity at 25 µM: compound 25 μM; for activity at 50 µM: compound 50 μM
Method: as §1
hTNFtg mice overexpress human TNF, resulting in the spontaneous development of arthritis.
as §2, §3, §4

SFs and PMCs = assay: Compound cytotoxicity, Crystal Violet assay
Method: The toxicity of the test compounds was assessed at several concentrations using the Crystal Violet assay on both SFs and PMCs. Adherent viable cells were Methanol fixed and stained with Crystal Violet. Optical density was quantified at […], as described in Feoktistova et al., 2016.

[1] = 10 ng/mL hTNF, compound 10 μM, read-out: CCL20 WT, percentage of level in untreated cells
[2] = read-out: CCL5 hTNFtg, percentage of level in untreated cells
[3] = read-out: CCL20 hTNFtg, percentage of level in untreated cells
[4] = read-out: IC50 (μM) CCL5 hTNFtg
[5] = read-out: IC50 (μM) CCL20 hTNFtg
[6] = 10 ng/mL hTNF, compound 10 μM, read-out: CCL5 WT, percentage of level in untreated cells

Compound	activity at 10 µM (hTNF-activated wt SFs; [1])	IC50 (hTNF-activated wt SFs; read-out: IC50 (μM) CCL5 WT)	IC50 (hTNF-activated wt SFs; read-out: IC50 (μM) CCL20 WT)	activity at 10 µM (hTNFtg SFs; [2])	activity at 10 µM (hTNFtg SFs; [3])	activity at 25 µM (hTNFtg SFs; [2])	activity at 25 µM (hTNFtg SFs; [3])	IC50 (hTNFtg SFs; [4])	IC50 (hTNFtg SFs; [5])	Cell Toxicity (SFs and PMCs)	activity at 10 µM (hTNF-activated wt SFs; [6])	other results
COc1cc(N)c(Cl)cc1C(=O)NCC1(c2ccc(F)cc2Cl)CCCCCC1 [Compound 58, 4-amino-5-chloro-N-((1-(2-chloro-4-fluorophenyl)cycloheptyl)methyl)-2-methoxybenzamide]	48.5%	2.96 µM	2.44 µM	64%	32.5%	53.5%	22.5%	0.95 µM	0.74 µM	>50 µM		CCL5 WT, percentage of level in untreated cells (hTNF-activated wt SFs; 1 ng/mL hTNF, compound 10 μM): 8%; CCL5 WT, percentage of level in untreated cells (hTNF-activated wt SFs; 1 ng/mL hTNF, compound 25 μM): 9%; CCL20 WT, percentage of level in untreated cells (hTNF-activated wt SFs; 1 ng/mL hTNF, compound 25 μM): 14%; CCL5 WT, percentage of level in untreated cells (hTNF-activated wt SFs; 10 ng/mL hTNF, compound 10 μM): 0%; CCL5 WT, percentage of level in untreated cells (hTNF-activated wt SFs; 10 ng/mL hTNF, compound 25 μM): 0%; CCL20 WT, percentage of level in untreated cells (hTNF-activated wt SFs; 10 ng/mL hTNF, compound 25 μM): 0%; activity at 10 µM (hTNF-activated wt SFs; 1 ng/mL hTNF, compound 10 μM, read-out: CCL20 WT, percentage of level in untreated cells): 15%
COc1cc(N)c(Cl)cc1C(=O)NCC1(c2ccc(F)cc2)CCCCCC1 [Compound 57, 4-amino-5-chloro-N-((1-(4-fluorophenyl)cycloheptyl)methyl)-2-methoxybenzamide]	13%	18 µM	3.5 µM	40%	27%	40%	25%	4 µM	2.4 µM	>25 µM	49%	activity at 25 µM (hTNF-activated wt SFs; 10 ng/mL hTNF, compound 25 μM, read-out: CCL5 WT, percentage of level in untreated cells): 14%; activity at 25 µM (hTNF-activated wt SFs; 10 ng/mL hTNF, compound 25 μM, read-out: CCL20 WT, percentage of level in untreated cells): 6%
COc1cc(N)c(Cl)cc1C(=O)NCC1(N2CCSCC2)CCCCCC1 [Compound 44, 4-amino-5-chloro-2-methoxy-N-((1-thiomorpholinocycloheptyl)methyl)benzamide]	75%	3.7 µM	~65 µM	69%	45%			12.6 µM	~15 µM	>100 µM	30%	activity at 50 µM (hTNF-activated wt SFs; 10 ng/mL hTNF, read-out: CCL5 WT, percentage of level in untreated cells): 2%; activity at 50 µM (hTNF-activated wt SFs; 10 ng/mL hTNF, read-out: CCL20 WT, percentage of level in untreated cells): 46%; activity at 50 µM (hTNFtg SFs; [2]): 26%; activity at 50 µM (hTNFtg SFs; [3]): 27%
